In ChEMBL document CHEMBL6182833, “Design, synthesis and antiviral evaluation of triazole-linked 7-hydroxycoumarin-monoterpene conjugates as inhibitors of RSV replication” (RSC Med Chem, 2025):

Columns and labels:
[1] = Selectivity index, ratio of CC50 for human HEp-2 cells to IC50 for Respiratory syncytial virus type A infected in human HEp-2 cells; assay type: cell-based; conditions: read-out: Ratio CC50/IC50
Human orthopneumovirus [2] = test: Antiviral activity against Respiratory syncytial virus type B infected in human HEp-2 cells assessed as inhibition of viral replication preincubated with cells followed by viral infection for 1 hr followed by virus washout and further incubated with compound for 6 days by ELISA method; assay type: functional, organism-based
Human orthopneumovirus [3] = test: Antiviral activity against Respiratory syncytial virus type A infected in human HEp-2 cells assessed as inhibition of viral replication preincubated with cells followed by viral infection for 1 hr followed by virus washout and further incubated with compound for 6 days by ELISA method; assay type: functional, organism-based
[4] = Selectivity index, ratio of CC50 for human HEp-2 cells to IC50 for Respiratory syncytial virus type B infected in human HEp-2 cells; assay type: cell-based; conditions: read-out: Ratio CC50/IC50
HEp-2 = test: Cytotoxicity against human HEp-2 cells assessed as cell growth inhibition measured after 24 hrs by MTT assay; assay type: functional

Compound	selectivity ratio [1]	IC50 (Human orthopneumovirus [2]; read-out: IC50) [µM]	IC50 (Human orthopneumovirus [2]; read-out: pIC50 (converted)) [µM]	IC50 (Human orthopneumovirus [3]; read-out: IC50) [µM]	IC50 (Human orthopneumovirus [3]; read-out: pIC50 (converted)) [µM]	selectivity ratio [4]	CC50 (HEp-2) [µM]	EC50 (Human orthopneumovirus [2]) [µM]
CC(C)CCCC(C)CCn1cc(COc2ccc3c4c(c(=O)oc3c2)CCCC4)nn1 (centres undefined)	6.1	4.5	4.47	3.7	3.72	4.9	22.2	–
CC(C)=CCCC(C)=CCn1cc(COc2ccc3c(-c4ccccc4)cc(=O)oc3c2)nn1	37	11.3	11.2	0.3	5.75	1.1	12.3	–
Cc1cc(=O)oc2cc(OCc3cn(Cc4ccc(C(C)C)cc4)nn3)ccc12	9	3.2	–	2.2	–	6.3	20	–
CC(C)=CCC/C(C)=C\Cn1cc(COc2ccc3c(C)cc(=O)oc3c2)nn1	> 96	1.1	1.1	< 0.2	0.151	13.4	14.7	–
CC1(C)[C@H]2CC=C(COc3ccc4c5c(c(=O)oc4c3)CCCC5)[C@@H]1C2	3.5	60.5	–	108	–	5.5	334	–
CC(C)=CCC/C(C)=C/Cn1cc(COc2ccc3c(C)cc(=O)oc3c2)nn1	2.5	8.2	0.151	6.1	6.17	1.8	15	–
CC1(C)[C@@H]2CC=C(COc3ccc4c5c(c(=O)oc4c3)CCCC5)[C@H]1C2	77	4.9	–	5.1	6.17	78.2	380	–
CC(C)c1ccc(Cn2cc(COc3ccc4c5c(c(=O)oc4c3)CCCC5)nn2)cc1	1.7	23.5	–	22.1	–	1.6	37.7	–
Cc1cc(=O)oc2cc(OCc3cn(CC4=CC[C@H]5C[C@@H]4C5(C)C)nn3)ccc12	2.2	7	–	6.4	–	2	14.3	–
CC(C)c1ccc(Cn2cc(COc3ccc4c(-c5ccccc5)cc(=O)oc4c3)nn2)cc1	17	6.6	–	4.9	–	12.9	85.7	–
CC(C)=CCC/C(C)=C/CCOc1ccc2c3c(c(=O)oc2c1)CCCC3	90	0.6	–	0.57	–	85.2	51.1	–
CC1(C)[C@@H]2CC=C(COc3ccc4c5c(c(=O)oc4c3)CCC5)[C@H]1C2	100	–	–	4.1	–	81.6	416	5.1
CC(C)=CCC/C(C)=C/CCOc1ccc2c3c(c(=O)oc2c1)CCC3	< 1	–	–	> 26	–	1.8	26.6	15.2
CC(C)=CCC/C(C)=C/CCOc1ccc2c(C)cc(=O)oc2c1	10.3	52.4	–	46.7	–	9.2	483	–
Cc1cc(=O)oc2cc(OCC3=CC[C@@H]4C[C@H]3C4(C)C)ccc12	90	4.7	–	1.3	–	24.7	116	–
